According to US20250305004A1, “ENHANCING GENE TARGETING EFFICIENCY IN HUMAN CELLS WITH DNA-PK INHIBITOR TREATMENT” (The Board of Trustees of the Leland Stanford Junior …, priority 2022, published 2025):
Entries after “also recorded” stand apart in the source; their conditions may differ.

What was measured:
Type in all cases: cell-based, human
HBB locus in HSPCs = assay: Editing of SCD mutation at HBB locus in HSPCs (AAV6 or ssODN donor)
Text: ICE analysis for quantification of gene editing.
CD34+ HSPC culture and genome editing.

PI3K family of kinases = assay: Western blot, phosphorylation of AKT (Ser473) by PI3K family kinases in PSC; conditions: 2 h
HSPCs = assay: Colony forming units (CFU) assay and genotyping of CCR5 gene targeted HSPCs; conditions: for colonies with bi-allelic HDR knock-in: untreated 9%
Experimental: Colony forming units assay and genotyping of clones. For colony forming units (CFU) assay, 250 to 500 HSPCs were plated in SmartDish 6-well plates ([…] Technologies, cat: 27370) containing MethoCult H4434 Classic ([…] Technologies, cat: 04444). After 14 days, colonies were counted and scored using STEMvision automated counter ([…] Technologies) to determine the number of BFU-E, CFU-M, CFU-GM, and CFU-GEMM colonies. To determine the ratio of monoallelic vs biallelic integration, individual colonies of each type were picked and genomic DNA was extracted with QE. ddPCR was used to determine the clones with mono- vs bi-allelic integration as mentioned. WT and INDEL frequencies in the clones were determined using ICE analysis.

SMILES: Cc1cc2ncnn2cc1Nc1ncc2c(n1)n(C1CCOCC1)c(=O)n2C [AZD7648, 7-methyl-2-((7-methyl-[1,2,4]triazolo[l,5-a]pyridin-6-yl)amino)-9-(tetrahydro-2H-pyran-4-yl)-7,9-dihydro-8H-purin-8-one]
- INDELs after gene targeting (HBB locus in HSPCs; AAV6 donor, 0.5 μM): almost no INDELs; also recorded: nearly INDEL-free levels
- gene targeting frequency (HBB locus in HSPCs; ssODN donor […], AZD7648 0.5 μM, untreated 49%): 65%
- phosphorylation of AKT (Ser473) (PI3K family of kinases): did not affect the phosphorylation of AKT
- total colony number and colony type distribution (HSPCs; 0.5 μM): did not cause further decrease in total colony number nor a change in the colony type distribution
- increase of colonies with bi-allelic HDR knock-in (HSPCs; BFU-E and CFU-GM, 0.5 μM): more than 7 fold
- colonies with bi-allelic HDR knock-in (HSPCs; BFU-E): 67%
- colonies with bi-allelic HDR knock-in (HSPCs; CFU-GM): 78%
